These results are taken from patent US20110142866A1, “PEPTIDE ANALOGUES AND CONJUGATES THEREOF” (Eldrug S.A., priority 2007, published 2011).

In test [1] the test system is IFN-γ secretion by T cells. Nature of the test: IFN-γ ELISpot of spleen cells from immunized mice. The test is classed as in vivo, SJL/J mice. The arrangement: key to IFN-γ: −: negative; +/−: very weak; +: weak; ++: moderate; +++: strong. As to the method: Female 6-8 week old SJL/J mice used in all experiments, were purchased from Walter and Eliza Hall Institute (VIC Australia) and housed at the Biological Research Laboratory at Burnet Institute at Austin, Heidelberg, Australia. SJL/J mice were immunized twice on days 0, 14 intradermally (base of tail) with 50 μg MBP83-99 peptide analogue-KLH-reduced mannan.
ELISpot analyses specific T cell responses to antigens by detecting the secretion of specific cytokines. Spleen cells from immunized SJL/J mice were isolated 14 days after immunization and assessed by ELISpot for IFN-γ, IL-4 or IL-10 secretion by T cells. IFN-γ ELISpot assay was performed on MultiScreen-IP Filter Plate (MAIP S4510) with hydrophobic PVDF filters (Millipore, UK) while IL-4 and IL-10 ELISpot was performed on MultiScreen-HA Filter Plate (MAHA S4510) with mixed cellulose esters filters (Millipore, UK). MAIP S4510 plates were pre-wet with 50 μl of 70% ethanol, washed 5 times with 200 μl sterile PBS and coated with 70 μl of 5 μg/ml anti-IFN-γ capture antibody, AN18 (Mabtech, Australia) in PBS and left to incubate at 4° C. O/N. While 70 μl of 5 μg/ml anti-IL-4 and anti-IL-10 capture antibody (Mabtech, Australia) was added directly to MAHA S4510 plates and incubated at 4° C. O/N without 70% ethanol treatment. Following 5 washes with PBS, plates were blocked by adding 200 μl of culture media (supplemented with 2.5% FCS) and incubated for 2 hours at 37° C. The blocking media was discarded and 10 μg/ml recall peptides (MBP83-99 peptide analogues not conjugated to KLH-reduced mannan) were added into each defined well. Con A (1.0 μg/ml; IL-4 and IFN-γ) or LPS (1.0 μg/ml; IL-10) were used as an internal positive controls and no peptide was used as negative control. Triplicate wells were set up for each condition. 5×10^5 spleen cells in 100 μl culture media were seeded into each well and incubated for 18 hours for IFN-γ, 24 hours for IL-4 and 48 hours for IL-10 at 37° C. Plates were washed 5 times PBS/0.05% Tween 20 and 5 times PBS and incubated for 2 hours at RT with anti-murine IFN-γ, IL-4 or IL-10 monoclonal antibody-biotin. Plates were washed and streptavidin-ALP was added at 1.0 μg/ml and incubated for 2.0 hours at RT. Spots of activity were detected using a colorimetric AP kit (Biorad, Hercules, Calif. USA) and counted using an AID ELISpot plate reader (Autoimmun Diagnostika GmbH, Germany). Data are presented as mean spot forming units (sfu) per 0.5×10^6 cells +/−standard error of the mean (SEM).
MBP87-99, [R^91, A^96]MBP87-99 or [A^91, A^96]MBP87-99 peptides were dissolved in PBS and emulsified in an equal volume of complete Freund's adjuvant (CFA) which contained 1.0 mg/ml of heat killed Mycobacterium tuberculosis H37RA (Sigma, Victoria, Australia). SJL/J mice were given one subcutaneous injection containing 50 μg peptide into the base of tail.
SJL/J mice were immunized twice on days 0 and 14 intradermally (base of tail) with 50 μg MBP87-99-KLH-reduced mannan, [R^91, A^96]MBP87-99-KLH-reduced mannan or [A^91, A^96]MBP87-99-KLH-reduced mannan conjugates.
ELISpot detects specific T cell responses to antigens by measuring the secretion of specific cytokines from individual cells. Spleen cells from immunized SJL/J mice were isolated 28 days after CFA immunization or 14 days after the last immunization with reduced mannan-peptides and assessed by ELISpot for IFN-γ and IL-4 secretion by T cells. IFN-γ ELISpot assay was performed on MultiScreen-IP Filter Plate (MAIP S4510) with hydrophobic PVDF filters (Millipore, UK), while IL-4 ELISpot assays were performed on MultiScreen-HA Filter Plate (MAHA S4510) with mixed cellulose esters filters (Millipore, UK). MAIP S4510 plates were pre-weted with 50 μl of 70% ethanol, washed 5 times with 200 μl of sterile phosphate-buffered saline (PBS) and coated with 70 μl of 5 μg/ml anti-IFN-γ capture antibody, AN18 (Mabtech, Australia) in PBS and incubated O/N at 4° C. […]

The next test concerns spleen cells. Briefly: T cell proliferation assay ([3H]-thymidine uptake). Particulars: for Proliferation: Table 2, peptide analogues conjugated to reduced mannan-KLH; for Proliferation cross reaction: Table 3, complete Freund's adjuvant; for proliferation of MBP83-99 specific T cells to recall analogue (in words): mice immunized with agonist MBP83-99 in CFA. The test is classed as in vivo, SJL/J mice. Further details: key to Proliferation / Proliferation cross reaction: −: negative; +/−: very weak; +: weak; ++: moderate; +++: strong. As to the method: Spleen cells from immunized SJL/J mice were isolated 14 days after immunization and assessed by T cell proliferation assay. 1×10^5 spleen cells in 100 μl culture media were seeded into 96 U-bottom plates and incubated for 1-6 days at 37° C. in the presence of recall peptide (10 μg/ml), ConA (positive control) or no peptide (negative control). Proliferation was assessed by adding 1 μCi of [^3H]-thymidine per well to one plate per time point (days 1-6). Cells were incubated for a further 6 h before harvesting onto glass fiber filters. [^3H] uptake was measured using a β-scintillation counter (Top Count Gamma Counter, Packard, USA).
Proliferation assays were used to detect the level of antigen specific T cells by measuring the [3H]thymidine uptake of T cells proliferating in the presence of peptides on days 1-6. Spleen cells from mice immunized with linear agonist MBP83-99 peptide were isolated 28 days after immunization and assessed by T cell proliferation assay. T cells proliferated to MBP83-99 peptide, reaching a peak by day 5 of up to 25 000 cpm (FIG. 9D). In addition, the MBP83-99 specific T cells cross-reacted with linear [A^91]MBP83-99 and mutant cyclo(83-99)[A^91]MBP83-99 peptide analogues (FIG. 9D). The cyclo(83-99)[A^91]MBP83-99 peptide proliferated similarly to linear [A^91]MBP83-99 peptide, reaching a peak on day 5 (FIG. 9D). ConA (internal control) yielded proliferation of more than 75 000 cpm peaked on day 2 and was excluded from the figures, and no peptide (cells alone) was used as background negative control.

[2] abbreviates: Table 2, peptide analogues conjugated to reduced mannan-KLH.
Setting [3] is: Table 3, peptide analogues emulsified in complete Freund's adjuvant.
Setting [4] is: 50 μg peptide conjugated to reduced mannan, two intradermal injections, spleen cells 14 days post-immunization.
Setting [5] is: 50 μg peptide emulsified in CFA, one injection, spleen cells 28 days.

In the case of “E N P V V H F F Y N I V T P R T P (ENPVVHFFYNIVTPRTP) [[Y^91]MBP83-99]”, in test [1] (setting [2]), the IFN-γ entry is reported as “−”. Also, the IFN-γ entry in test [1] (setting [3]) was “−”. In addition, in the test with spleen cells, the Proliferation result is “+/−”, the Proliferation cross reaction result was “+/−” and the “proliferation of MBP83-99 specific T cells to recall analogue (in words)” value (shortened to “proliferation … to recall analogue (in words)”) is given as “weakly proliferated”.

As for “E N P V V H F F E N I V T P R T P (ENPVVHFFENIVTPRTP) [[E^91]MBP83-99]”, the IFN-γ result in test [1] (setting [2]) and in test [1] (setting [3]) was “−” throughout. The Proliferation cross reaction entry with spleen cells was “++”.

As for `CC[C@H](C)[C@@H]1NC(=O)[C@H](CC(N)=O)NC(=O)[C@H](CCCCN)NC(=O)[C@H](Cc2ccccc2)NC(=O)[C@H](Cc2ccccc2)NC(=O)[C@H](Cc2c[nH]cn2)NC(=O)[C@H](C(C)C)NC(=O)[C@H](C(C)C)NC(=O)[C@@H]2CCCN2C(=O)[C@H](CC(N)=O)NC(=O)[C@H](CCC(=O)O)NC(=O)[C@@H]2CCCN2C(=O)[C@H]([C@@H](C)O)NC(=O)[C@H](CCCNC(=N)N)NC(=O)[C@@H]2CCCN2C(=O)[C@H]([C@@H](C)O)NC(=O)[C@H](C(C)C)NC1=O` [cyclo(83-99)MBP83-99, cyclo(83-99)E N P V V H F F K N I V T P R T P], the “IFN-γ secreting T cells (in words)” value was “weak and generated IFN-γ secreting T cells” in test [1] (setting [4]); “induced IFN-γ responses” in test [1] (setting [5]). Further, the IFN-γ result in test [1] (setting [3]) is “+”.

On to “E N P V V H F F A N I V T P R T P (ENPVVHFFANIVTPRTP) [[A^91]MBP83-99]”, for which the “IFN-γ secreting T cells (in words)” value in test [1] (setting [4]) was “negative”; in test [1] (setting [5]), “lower”. For the same compound, the IFN-γ entry in test [1] (setting [2]) and in test [1] (setting [3]) was “−” in each case. In addition, the Proliferation cross reaction result with spleen cells is recorded as “++”. For the same compound, the “proliferation … to recall analogue (in words)” value in the test on spleen cells was “cross-reacted”.

Regarding “E N P V V H F F R N I V T A R T P (ENPVVHFFRNIVTARTP) [[R^91, A^96]MBP83-99]”, the “IFN-γ secreting T cells (in words)” value in test [1] (setting [4]) was “no IFN-γ”. In addition, the IFN-γ entry in test [1] (setting [2]) is recorded as “−”. For the same compound, in test [1] (setting [3]), the IFN-γ entry is “++”. Moreover, in the test on spleen cells, the Proliferation cross reaction result is “+/−” and the “proliferation … to recall analogue (in words)” value was “weakly proliferated”.

For “E N P V V H F F F N I V T P R T P (ENPVVHFFFNIVTPRTP) [[F^91]MBP83-99]”, in test [1] (setting [4]), the “IFN-γ secreting T cells (in words)” value is “weak and induced”. In addition, the IFN-γ result in test [1] (setting [2]) is given as “++”. Further, in test [1] (setting [3]), the IFN-γ entry is “++”. Also, in the test with spleen cells, the Proliferation result is reported as “+++” and the Proliferation cross reaction result is “++”. The “T cell proliferation to recall peptide (in words)” value with spleen cells (immunization with reduced mannan-KLH-peptide) was “strong”.

Consider “E N P V V H F F K N I V T P R T P (ENPVVHFFKNIVTPRTP) [MBP83-99, reference compound]”, for which the “IFN-γ secreting T cells (in words)” value in test [1] (setting [4]) was “weak and generated IFN-γ secreting T cells and high levels”; in test [1] (setting [5]), “induced IFN-γ responses”. The IFN-γ entry in test [1] (setting [2]) was “++”; in test [1] (setting [3]), “+”. In addition, the “T cell proliferation, peak” value with spleen cells (mice immunized with linear MBP83-99 (CFA), spleen cells 28 days, recall peptide, peak by day 5) is listed as “up to 25 000 cpm”.

“cyclo(83-99)E N P V V H F F A N I V T P R T P (ENPVVHFFANIVTPRTP; cyclised or stapled) [cyclo(83-99)[A^91]MBP83-99]”: the “IFN-γ secreting T cells (in words)” value was “negative” in test [1] (setting [4]) and “lower” in test [1] (setting [5]). The IFN-γ entry in test [1] (setting [2]) and in test [1] (setting [3]) was “−” throughout. Also, the Proliferation cross reaction entry with spleen cells is on record as “++”. Further, the “proliferation … to recall analogue (in words)” value with spleen cells is listed as “cross-reacted”.
